Experiments:
Format in all cases: cell-based
IL-1beta = IL-1beta gene expression (mRNA, RT-PCR) in IL1beta-treated normal human chondrocytes; details: catabolic gene, % of IL1beta-treated cells (set at 100%), HT 1.925 mg/L, CS 500 mg/L, or both
Procedure: (§1) The effect of HT in combination with chondroitin was tested on the expression of human aggrecan or collagen I in normal human chondrocytes (derived from knee) (CC-2550; Cambrex, respectively). OH-tyrosol (HT) was from Cayman Chemicals or from DSM; chondroitin sulfate (from shark) was purchased from Sigma. A control experiment without the compounds was done concomitantly to compare the expression of these genes. Normal human chondrocytes were cultured for 4 hours or 4 days with HT (at 12.5 micromol/L), chondroitin (at 500 mg/L) as well as with both. The level of mRNA was determined by RT-PCR (Richard et al. Mol. Nutr. Food Res. 49, 431-442, 2005) and expressed relative to the level observed in cells cultured without the substances. The given values indicate the level of gene expression (in % of unstimulated cells [set at 100%] for anabolic and anti-catabolic genes; in % of IL1beta-treated cells [set at 100%], for catabolic genes). The combination of HT was used at 12.5 micromol/L (=1.925 mg/L), while the chondroitin sulfate (CS) was tested at 500 mg/L. The results shown in Table 1 indicate that a HT altered the expression of anabolic genes such as aggrecan or collagen. Similar effects were elicited by chondroitin. Yet, when combined the observed increase in gene expression exceeded the expected value reflecting a synergistic interaction.

human aggrecan = assay: Aggrecan gene expression (mRNA, RT-PCR) in normal human chondrocytes; details: anabolic gene, % of unstimulated cells (set at 100%), CS 500 mg/L, or both; for Aggrecan (unstim., 4 hrs) level of gene expression: HT 1.925 mg/L (12.5 micromol/L); for Aggrecan (unstim. 4 d) level of gene expression: HT 1.925 mg/L
From the text: as §1, with “In articular cartilage, the balance between anabolic (build-up) and catabolic (break down) events needs to be maintained in order to prevent hypertrophy and excessive degradation of extracellular matrix (ECM), respectively. The ECM is built up of collagen and proteoglycans that are the products of collagen genes, for example human collagen I or aggrecan genes which are actived during anabolic events. A substance which increases expression of these genes or the respective proteins (i.e. collagen and aggrecan) favors cartilage regeneration and/or build-up. The effect” for “The effect”

MMP-2 = MMP-2 gene expression (mRNA, RT-PCR) in IL1beta-treated normal human chondrocytes; details: catabolic gene, % of IL1beta-treated cells (set at 100%), HT 1.925 mg/L, CS 500 mg/L, or both
Procedure: (§2) Catabolic events are controlled by the expression of genes, e.g. those genes that encode matrix metalloproteinases (MMPs) that eventually break down collagen. Of the MMPs, MMP-1 and MMP-3 have a major role in the degradation of the ECM and thus in cartilage erosion. The effect of HT in combination with chondroitin was tested on the expression of human aggrecan or collagen I in normal human chondrocytes (derived from knee) (CC-2550; Cambrex, respectively). OH-tyrosol (HT) was from Cayman Chemicals or from DSM; chondroitin sulfate (from shark) was purchased from Sigma. A control experiment without the compounds was done concomitantly to compare the expression of these genes. Normal human chondrocytes were cultured for 4 hours or 4 days with HT (at 12.5 micromol/L), chondroitin (at 500 mg/L) as well as with both. The level of mRNA was determined by RT-PCR (Richard et al. Mol. Nutr. Food Res. 49, 431-442, 2005) and expressed relative to the level observed in cells cultured without the substances. The given values indicate the level of gene expression (in % of unstimulated cells [set at 100%] for anabolic and anti-catabolic genes; in % of IL1beta-treated cells [set at 100%], for catabolic genes). […]

human collagen I = assay: Collagen I gene expression (mRNA, RT-PCR) in normal human chondrocytes; details: anabolic gene, % of unstimulated cells (set at 100%), HT 1.925 mg/L, CS 500 mg/L, or both
From the text: In articular cartilage, the balance between anabolic (build-up) and catabolic (break down) events needs to be maintained in order to prevent hypertrophy and excessive degradation of extracellular matrix (ECM), respectively. The ECM is built up of collagen and proteoglycans that are the products of collagen genes, for example human collagen I or aggrecan genes which are actived during anabolic events. A substance which increases expression of these genes or the respective proteins (i.e. collagen and aggrecan) favors cartilage regeneration and/or build-up. The effect of HT in combination with chondroitin was tested on the expression of human aggrecan or collagen I in normal human chondrocytes (derived from knee) (CC-2550; Cambrex, respectively). OH-tyrosol (HT) was from Cayman Chemicals or from DSM; chondroitin sulfate (from shark) was purchased from Sigma. A control experiment without the compounds was done concomitantly to compare the expression of these genes. Normal human chondrocytes were cultured for 4 hours or 4 days with HT (at 12.5 micromol/L), chondroitin (at 500 mg/L) as well as with both. The level of mRNA was determined by RT-PCR (Richard et al. Mol. Nutr. Food Res. 49, 431-442, 2005) and expressed relative to the level observed in cells cultured without the substances. […]

MMP-1 = MMP-1 gene expression (mRNA, RT-PCR) in IL1beta-treated normal human chondrocytes; details: catabolic gene, % of IL1beta-treated cells (set at 100%), HT 1.925 mg/L, CS 500 mg/L, or both
Procedure: as §2

MMP-13 = MMP-13 gene expression (mRNA, RT-PCR) in IL1beta-treated normal human chondrocytes; details: catabolic gene, % of IL1beta-treated cells (set at 100%), HT 1.925 mg/L, CS 500 mg/L, or both
Procedure: as §2

Compound | IL-1beta (stim., 4 hrs) level of gene expression (IL-1beta) [%] | Aggrecan (unstim., 4 hrs) level of gene expression (human aggrecan) [%] | Aggrecan (unstim. 4 d) level of gene expression (human aggrecan) [%] | MMP-2 (stim., 4 hrs) level of gene expression (MMP-2) [%] | Collagen 1 (unstim. 4 d) level of gene expression (human collagen I) [%] | MMP-1 (stim., 4 d) level of gene expression (MMP-1) [%] | MMP-13 (stim., 4 hrs) level of gene expression (MMP-13) [%]
OCCc1ccc(O)c(O)c1 [HT, 2-(3,4-dihydroxyphenyl)-ethanol] | 83 | 115 | 118 | 102 | 113 | 109 | 96
chondroitin sulfate [CS] | 91 | 113 | 97 | 116 | 103 | 122 | 90
